Reference: patent publication US12410399B2, “Compositions and methods for treating retinal diseases” (The Regents of the University of California, priority 2011, dated 2025)

What was measured:
hRPC = test: steroid toxicity test on hRPCs (CCK-8 cytotoxicity); assay type: cell-based, human
Procedure: The cells were also subjected to a steroid toxicity test, since steroids are often used in patients at the time of transplantation.
Cell Counting Kit-8 (CCK-8; Dojindo Molecular Technologies Inc., Gaithersburg, MD) was used to determine cytotoxicity of RPCs. The kit uses WST-8, which, upon bioreduction in the presence of the electron carrier 1-methoxy PMS, produces a water-soluble colored formazan. Ninety-six well plates containing 90 μl of cell suspension per well were inoculated with 10 μl of CCK-8 pre-packaged solution. The plates were incubator for 2 hours and the OD450 of the supernatant was measured. Each experiment was performed in quadruplicate on at least three separate experiments.

hRPCs = test: hRPC culture medium and supplement comparison (yield, proliferation); assay type: cell-based, human; conditions: supplement added to culture medium every two days
Procedure: Various serum- and xeno-free cell culture media were tested to determine the optimum condition for propagating RPCs, including DMEM/FF12 (standard, Advanced and KnockOut; Invitrogen), Neurobasal (Invitrogen), Ultraculture (Lonza), and ReNcell (Chemicon). […] “SM” as provided herein refers to standard growth medium based on DMEM/FF12. “UL” is referred to herein as growth medium using Ultraculture as the base medium. Serum-free media was used in the absence of antibiotics or with antibiotics for first two weeks, followed by antibiotic-free media for about 6 weeks. No antifungal agents were used. […] For base medium, standard DMEM/F12, a media supplemented with N2 Supplement, growth factors, glutamine or GLUTAMAX™ (GlutaMax™), was compared with “Advanced DMEM/FF12”, supplemented in the same way.
The effects of cell culture supplementation were also explored. To that end, the N2 supplement was also compared with the B27 xeno-free supplement. […] The effects of additional vitamin C were also tested. A vitamin C supplement was added to the culture medium every two days. […] Finally, supplementation with albumin was tested.
The osmolarity of the cell culture medium was also examined by using media of differing osmolarity (osm), in combination with different commercially available supplements.

## CC1(C)O[C@@H]2C[C@H]3[C@@H]4CCC5=CC(=O)C=C[C@]5(C)[C@@]4(F)[C@@H](O)C[C@]3(C)[C@]2(C(=O)CO)O1 [triamcinolone acetonide]
hRPC; clinical doses
  effect on cell proliferation: did not appear to affect cell proliferation
hRPC; high doses (about >10 times the expected clinical dose)
  effect on donor cell viability: may decrease donor cell viability

## O=C1O[C@H]([C@@H](O)CO)C(O)=C1O [vitamin C]
hRPCs
  improvement of hRPC yield: approximately 30%
